According to article PMC6979384, “Characterization of the plant homeodomain (PHD) reader family for their histone tail interactions” (Epigenetics & Chromatin, 2020):

Key:
Test in all cases: Histone peptide microarray
Type in all cases: binding, human
Conditions in all cases: total n = 4
ING1 = test system: ING1
How it was run: (§1)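 Histone peptide library (293 synthetic peptides, single/combinatorial PTMs) arrayed and probed with 0.5 μM purified GST-PHD domain; optimized protocol; quadruplicate mean and SD reported.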

ING5 = test system: ING5
How it was run: as §1

TAF3 = test system: TAF3
How it was run: as §1

KDM5B (3) = test system: KDM5B (3)
How it was run: as §1

PHF13 = test system: PHF13
How it was run: as §1

TRIM66 (PB) = test system: TRIM66 (PB)
How it was run: as §1

DIDO1 = test system: DIDO1
How it was run: as §1

KDM5A (3) = test system: KDM5A (3)
How it was run: as §1

KDM5B (1) = test system: KDM5B (1)
How it was run: as §1

PHF2 = test system: PHF2
How it was run: as §1

SP140L = test system: SP140L
How it was run: as §1

BPTF (PB) = test system: BPTF (PB)
How it was run: as §1

KDM5A (1) = test system: KDM5A (1)
How it was run: as §1

PHF8 = test system: PHF8
How it was run: as §1

DPF2 (PPC2W2) = test system: DPF2 (PPC2W2)
How it was run: as §1

MLL5 = test system: MLL5
How it was run: as §1

CHD5 (PCC) = test system: CHD5 (PCC)
How it was run: as §1

ING4 = test system: ING4
How it was run: as §1

KDM4C (TTP) = test system: KDM4C (TTP)
How it was run: as §1

PHF21A = test system: PHF21A
How it was run: as §1

KDM7A = test system: KDM7A
How it was run: as §1

RAG2 = test system: RAG2
How it was run: as §1

PHRF1 (RP) = test system: PHRF1 (RP)
How it was run: as §1

ING2 = test system: ING2
How it was run: as §1

CHD4 (PPCC) = test system: CHD4 (PPCC)
How it was run: as §1

CHD5 (PPCC) = test system: CHD5 (PPCC)
How it was run: as §1

ING3 = test system: ING3
How it was run: as §1

PHF23 = test system: PHF23
How it was run: as §1

AIRE (PP) = test system: AIRE (PP)
How it was run: as §1

MORC3 (CW) = test system: MORC3 (CW)
How it was run: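 Readout is array binding signal, reported as the mean and standard deviation over four replicates. Each purified GST-fused PHD domain was incubated at 0.5 μM with a library of 293 modified histone peptides.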

BAZ2B = test system: BAZ2B
How it was run: as §1

[1] = sheet "Array Heatmap", GST-tagged reader, histone peptide array

Substance: H3K4me3 + K9me3: H3 1-20
- Array Heatmap signal, ING1 (ING1; [1]): 0.6677
- Array Heatmap signal, ING5 (ING5; [1]): 0.4091
- Array Heatmap signal, TAF3 (TAF3; [1]): 0.3501
- Array Heatmap signal, KDM5B (3) (KDM5B (3); [1]): 0.5506
- Array Heatmap signal, PHF13 (PHF13; [1]): 0.6561
- Array Heatmap signal, TRIM66 (PB) (TRIM66 (PB); [1]): 0.5701
- Array Heatmap signal, DIDO1 (DIDO1; [1]): 0.7556
- Array Heatmap signal, KDM5A (3) (KDM5A (3); [1]): 0.6222
- Array Heatmap signal, KDM5B (1) (KDM5B (1); [1]): 0.6368
- Array Heatmap signal, PHF2 (PHF2; [1]): 0.6501
- Array Heatmap signal, SP140L (SP140L; [1]): 0.3795
- Array Heatmap signal, BPTF (PB) (BPTF (PB); [1]): 0.3806
- Array Heatmap signal, KDM5A (1) (KDM5A (1); [1]): 0.4868
- Array Heatmap signal, PHF8 (PHF8; [1]): 0.4712
- Array Heatmap signal, DPF2 (PPC2W2) (DPF2 (PPC2W2); [1]): 0.7108
- Array Heatmap signal, MLL5 (MLL5; [1]): 0.6708
- Array Heatmap signal, CHD5 (PCC) (CHD5 (PCC); [1]): 0.7845
- Array Heatmap signal, ING4 (ING4; [1]): 0.4847
- Array Heatmap signal, KDM4C (TTP) (KDM4C (TTP); [1]): 0.5629
- Array Heatmap signal, PHF21A (PHF21A; [1]): 0.4927
- Array Heatmap signal, KDM7A (KDM7A; [1]): 0.4063
- Array Heatmap signal, RAG2 (RAG2; [1]): 0.359
- Array Heatmap signal, PHRF1 (RP) (PHRF1 (RP); [1]): 0.5034
- Array Heatmap signal, ING2 (ING2; [1]): 0.7112
- Array Heatmap signal, CHD4 (PPCC) (CHD4 (PPCC); [1]): 0.5681
- Array Heatmap signal, CHD5 (PPCC) (CHD5 (PPCC); [1]): 0.5893
- Array Heatmap signal, ING3 (ING3; [1]): 0.5385
- Array Heatmap signal, PHF23 (PHF23; [1]): 0.5934
- Array Heatmap signal, AIRE (PP) (AIRE (PP); [1]): 0.4775
- Array Heatmap signal, MORC3 (CW) (MORC3 (CW); [1]): 0.5189
- Array Heatmap signal, BAZ2B (BAZ2B; [1]): 0.4905

Substance: H3K4me3 + K14ac + K18ac: H3 1-20
- Array Heatmap signal (histone peptide microarray) (ING1; GST-tagged ING1, sheet Array Heatmap, each array performed twice): 0.9274
- Array Heatmap signal (histone peptide microarray) (ING5; GST-tagged ING5, sheet Array Heatmap, each array performed twice): 0.6681
- Array Heatmap signal (histone peptide microarray) (TAF3; GST-tagged TAF3, sheet Array Heatmap, each array performed twice): 1
- Array Heatmap signal (histone peptide microarray) (KDM5B (3); GST-tagged KDM5B (3), sheet Array Heatmap, each array performed twice): 0.9729
- Array Heatmap signal (histone peptide microarray) (PHF13; GST-tagged PHF13, sheet Array Heatmap, each array performed twice): 0.9146
- Array Heatmap signal (histone peptide microarray) (TRIM66 (PB); GST-tagged TRIM66 (PB = PHD + Bromodomain), sheet Array Heatmap, each array performed twice): 0.7091
- Array Heatmap signal (histone peptide microarray) (DIDO1; GST-tagged DIDO1, sheet Array Heatmap, each array performed twice): 0.9566
- Array Heatmap signal (histone peptide microarray) (KDM5A (3); GST-tagged KDM5A (3), sheet Array Heatmap, each array performed twice): 0.9424
- Array Heatmap signal (histone peptide microarray) (KDM5B (1); GST-tagged KDM5B (1), sheet Array Heatmap, each array performed twice): 0.8317
- Array Heatmap signal (histone peptide microarray) (PHF2; GST-tagged PHF2, sheet Array Heatmap, each array performed twice): 0.829
- Array Heatmap signal (histone peptide microarray) (SP140L; GST-tagged SP140L, sheet Array Heatmap, each array performed twice): 0.3709
- Array Heatmap signal (histone peptide microarray) (BPTF (PB); GST-tagged BPTF (PB = PHD + Bromodomain), sheet Array Heatmap, each array performed twice): 1
- Array Heatmap signal (histone peptide microarray) (KDM5A (1); GST-tagged KDM5A (1), sheet Array Heatmap, each array performed twice): 0.5146
- Array Heatmap signal (histone peptide microarray) (PHF8; GST-tagged PHF8, sheet Array Heatmap, each array performed twice): 0.9943
- Array Heatmap signal (histone peptide microarray) (DPF2 (PPC2W2); GST-tagged DPF2 (PPC2W2 = Dual PHD + C2W2-type Zn-finger), sheet Array Heatmap, each array performed twice): 0.7705
- Array Heatmap signal (histone peptide microarray) (MLL5; GST-tagged MLL5, sheet Array Heatmap, each array performed twice): 0.9197
- Array Heatmap signal (histone peptide microarray) (CHD5 (PCC); GST-tagged CHD5 (PCC = PHD + Dual Chromodomain), sheet Array Heatmap, each array performed twice): 0.8498
- Array Heatmap signal (histone peptide microarray) (ING4; GST-tagged ING4, sheet Array Heatmap, each array performed twice): 0.8448
- Array Heatmap signal (histone peptide microarray) (KDM4C (TTP); GST-tagged KDM4C (TTP = Tandem Tudor domain + PHD), sheet Array Heatmap, each array performed twice): 0.868
- Array Heatmap signal (histone peptide microarray) (PHF21A; GST-tagged PHF21A, sheet Array Heatmap, each array performed twice): 0.4924
- Array Heatmap signal (histone peptide microarray) (KDM7A; GST-tagged KDM7A, sheet Array Heatmap, each array performed twice): 0.7919
- Array Heatmap signal (histone peptide microarray) (RAG2; GST-tagged RAG2, sheet Array Heatmap, each array performed twice): 1
- Array Heatmap signal (histone peptide microarray) (PHRF1 (RP); GST-tagged PHRF1 (RP), sheet Array Heatmap, each array performed twice): 0.6285
- Array Heatmap signal (histone peptide microarray) (ING2; GST-tagged ING2, sheet Array Heatmap, each array performed twice): 0.908
- Array Heatmap signal (histone peptide microarray) (CHD4 (PPCC); GST-tagged CHD4 (PPCC = Dual PHD + Dual Chromodomain), sheet Array Heatmap, each array performed twice): 0.5986
- Array Heatmap signal (histone peptide microarray) (CHD5 (PPCC); GST-tagged CHD5 (PPCC = Dual PHD + Dual Chromodomain), sheet Array Heatmap, each array performed twice): 0.6153
- Array Heatmap signal (histone peptide microarray) (ING3; GST-tagged ING3, sheet Array Heatmap, each array performed twice): 1
- Array Heatmap signal (histone peptide microarray) (PHF23; GST-tagged PHF23, sheet Array Heatmap, each array performed twice): 0.9183
- Array Heatmap signal (histone peptide microarray) (AIRE (PP); GST-tagged AIRE (PP), sheet Array Heatmap, each array performed twice): 0.5611
- Array Heatmap signal (histone peptide microarray) (MORC3 (CW); GST-tagged MORC3 (CW = CW-type Zn-finger), sheet Array Heatmap, each array performed twice): 0.9877
- Array Heatmap signal (histone peptide microarray) (BAZ2B; GST-tagged BAZ2B, sheet Array Heatmap, each array performed twice): 0.6645
